Test results as given in patent publication US9333195B2 (priority 1999, dated 2016).
Counter-ions that a name gives are not always drawn.

Molecular target: human muscarinic receptors Hm3 (Homo sapiens (Human), UniProt P20309)
Test: biochemical
Type: binding
Conditions: not given

| SMILES | IC50 |
| --- | --- |
| O=C(O[C@H]1C[N+]2(CC=Cc3ccccc3)CCC1CC2)C(O)(c1ccccc1)c1ccco1 (mixture of isomers) [Example 17, 3(R)-(2-Furan-2-yl-2-hydroxy-2-phenylacetoxy)-1-(3-phenylallyl)-1-azoniabicyclo[2.2.2]octane; bromide] | 14 nM |

Same assay, conditions: read-out: BINDING TO RECEPTOR M3 (IC50 nM)

| SMILES | IC50 |
| --- | --- |
| O=C(O[C@H]1C[N+]2(CCCOc3ccccc3)CCC1CC2)C(c1ccccc1)c1ccccc1 [Example 1, 3 (R)-Diphenylacetoxy-1-(3-phenoxypropyl)-1-azoniabicyclo[2.2. 2]octane; bromide] | 31 nM |
| CC(C(=O)O[C@H]1C[N+]2(CCCOc3ccccc3)CCC1CC2)(c1ccccc1)c1ccccc1 [Example 7, 3(R)-(2,2-Diphenylpropionyloxy)-1-(3-phenoxypropyl)-1-azoniabicyclo[2.2.2]octane; bromide] | 22 nM |
| O=C(O[C@H]1C[N+]2(CCCOc3ccccc3)CCC1CC2)C(O)(c1ccccc1)c1cccs1 (stereo partly drawn) [Example 8, 3(R)-(2-Hydroxy-2-phenyl-2-thien-2-ylacetoxy)-1-(3-phenoxypropyl)-1-azoniabicyclo[2.2.2]octane; bromide] | 4.8 nM |
| O=C(O[C@H]1C[N+]2(CCOc3ccccc3)CCC1CC2)C(O)(c1ccccc1)c1ccco1 (stereo partly drawn) [Example 18, 3(R)-(2-Furan-2-yl-2-hydroxy-2-phenylacetoxy)-1-(2-phenoxyethyl)-1-azoniabicyclo[2.2.2]octane; bromide] | 6.6 nM |
| O=C(O[C@H]1C[N+]2(CCCOc3ccccc3)CCC1CC2)C(O)(c1ccccc1)c1ccco1 (stereo partly drawn) [Example 20, 3(R)-(2-Furan-2-yl-2-hydroxy-2-phenylacetoxy)-1-(3-phenoxypropyl)-1-azoniabicyclo[2.2.2]octane; bromide] | 6.8 nM |
| O=C(O[C@H]1C[N+]2(CCCOc3ccccc3)CCC1CC2)C(c1cccs1)c1cccs1 [Example 35, 3(R)-(2,2-Dithien-2-ylacetoxy)-1-(3-phenoxypropyl)-1-azoniabicyclo[2.2.2]octane; bromide] | 13 nM |
| O=C(O[C@H]1C[N+]2(CCCCc3ccccc3)CCC1CC2)C(O)(c1cccs1)c1cccs1 [Example 39, 3(R)-(2-Hydroxy-2,2-dithien-2-ylacetoxy)-1-(4-phenylbutyl)-1-azoniabicyclo[2.2.2]octane; bromide] | 3.8 nM |
| O=C(O[C@H]1C[N+]2(CCCOc3ccc(F)cc3)CCC1CC2)C(O)(c1cccs1)c1cccs1 [Example 53, 1-[3-(4-Fluorophenoxy)propyl]-3(R)-(2-hydroxy-2,2-dithien-2-ylacetoxy)-1-azoniabicyclo[2.2.2]octane; chloride] | 5.6 nM |
| O=C(O[C@H]1C[N+]2(CCCOc3ccccc3O)CCC1CC2)C(O)(c1cccs1)c1cccs1 [Example 71, 3(R)-(2-Hydroxy-2,2-dithien-2-ylacetoxy)-1-[3-(2-hydroxyphenoxy)propyl]-1-azoniabicyclo[2.2.2]octane; trifluoroacetate] | 8.2 nM |
| O=C(O[C@H]1C[N+]2(CCCn3cccc3)CCC1CC2)C(O)(c1cccs1)c1cccs1 [Example 74, 3(R)-(2-Hydroxy-2,2-dithien-2-ylacetoxy)-1-(3-pyrrol-1-ylpropyl)-1-azoniabicyclo[2.2.2]octane; trifluoroacetate] | 16 nM |
| O=C(O[C@H]1C[N+]2(CCCc3cccs3)CCC1CC2)C(O)(c1cccs1)c1cccs1 [Example 78, 3(R)-(2-Hydroxy-2,2-dithien-2-ylacetoxy)-1-(3-thien-2-ylpropyl)-1-azoniabicyclo[2.2.2]octane; bromide] | 5 nM |
| O=C(O[C@H]1C[N+]2(CCOCc3ccccc3)CCC1CC2)C(O)(c1cccs1)c1cccs1 [Example 84, 1-(2-Benzyloxyethyl)-3(R)-(2-hydroxy-2,2-dithien-2-ylacetoxy)-1-azoniabicyclo[2.2.2]octane; trifluoroacetate] | 9.9 nM |
| O=C(O[C@H]1C[N+]2(CCCOc3ccccc3)CCC1CC2)C(O)(c1ccsc1)c1ccsc1 [Example 89, 3(R)-(2-Hydroxy-2,2-dithien-3-ylacetoxy)-1-(3-phenoxypropyl)-1-azoniabicyclo[2.2.2]octane; bromide] | 5.4 nM |
| CC1(C(=O)O[C@H]2C[N+]3(CC=Cc4ccccc4)CCC2CC3)c2ccccc2-c2ccccc21 [Example 114, 3(R)-(9-Methyl-9[H]-fluorene-9-carbonyloxy)-1-(3-phenylallyl)-1-azoniabicyclo[2.2.2]octane; bromide] | 14 nM |
| CC1(C(=O)O[C@H]2C[N+]3(CCCOc4ccccc4)CCC2CC3)c2ccccc2-c2ccccc21 [Example 116, 3(R)-(9-Methyl-9[H]-fluorene-9-carbonyloxy)-1-(3-phenoxypropyl)-1-azoniabicyclo[2.2.2]octane; bromide] | 23 nM |
| O=C(O[C@H]1C[N+]2(CCCc3cccs3)CCC1CC2)C1(O)c2ccccc2Oc2ccccc21 [Example 138, 3(R)-(9-Hydroxy-9H-xanthene-9-carbonyloxy)-1-(3-thien-2-ylpropyl)-1-azoniabicyclo[2.2.2]octane; bromide] | 19 nM |
